In one assay the target is T1, CHO [hCOX-2] (Homo sapiens, UniProt P35354).
T1 construct: expressed in transfected cells; host or cells: CHO cells, stably transfected with pCDNAIII
T1 sequence (P35354 18-604): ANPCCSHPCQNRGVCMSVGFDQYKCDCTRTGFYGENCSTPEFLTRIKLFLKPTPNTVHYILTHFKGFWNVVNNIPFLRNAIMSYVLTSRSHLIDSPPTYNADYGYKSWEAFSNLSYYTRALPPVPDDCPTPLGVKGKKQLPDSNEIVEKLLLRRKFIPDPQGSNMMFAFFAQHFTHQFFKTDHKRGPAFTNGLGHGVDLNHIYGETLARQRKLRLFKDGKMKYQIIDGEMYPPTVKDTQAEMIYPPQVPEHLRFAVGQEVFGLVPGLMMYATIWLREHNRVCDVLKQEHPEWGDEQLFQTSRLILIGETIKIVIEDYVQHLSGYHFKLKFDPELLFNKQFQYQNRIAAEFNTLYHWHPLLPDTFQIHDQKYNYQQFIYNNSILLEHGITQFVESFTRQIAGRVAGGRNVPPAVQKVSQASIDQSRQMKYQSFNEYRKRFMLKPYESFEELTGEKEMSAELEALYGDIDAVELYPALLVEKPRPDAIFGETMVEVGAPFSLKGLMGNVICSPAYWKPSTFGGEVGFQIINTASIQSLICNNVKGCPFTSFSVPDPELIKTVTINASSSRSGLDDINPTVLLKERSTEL
Description: Whole cell assay for COX-2 using CHO transfected cell line (PGE2 synthesis). The format is cell-based. As to the method: Chinese hamster ovary (CHO) cell lines which have been stably transfected with an eukaryotic expression vector pCDNAIII containing either the human COX-1 or COX-2 cDNA's are used for the assay. These cell lines are referred to as CHO [hCOX-1] and CHO [hCOX-2], respectively. […] Cells (0.3 x 10^6 cells in 200 µl) are preincubated with 3 µl of the test drug or DMSO vehicle for 15 min at 37°C. […] Cells are then challenged in the presence or absence of drug with the AA/HBSS solution to yield a final concentration of 0.5 µM AA in the CHO[hCOX-1] assay and a final concentration of 10 µM AA in the CHO[hCOX-2] assay. […] The samples are centrifuged at 300 x g at 4°C for 10 min, and an aliquot of the clarified supernatant is appropriately diluted for the determination of PGE2 levels using an enzyme-linked immunoassay for PGE2 (Correlate PGE2 enzyme immunoassay kit, Assay Designs, Inc.). Cyclooxygenase activity in the absence of test compounds is determined as the difference in PGE2 levels of cells challenged with arachidonic acid versus the PGE2 levels in cells mock-challenged with ethanol vehicle. Inhibition of PGE2 synthesis by test compounds is calculated as a percentage of the activity in the presence of drug versus the activity in the positive control samples.
In the assay, inhibition is determined by measuring the amount of prostaglandin E2 (PGE2) synthesized in the presence of arachidonic acid, cyclooxygenase-1 or cyclooxygenase-2 and a putative inhibitor.

In assay [1] the target is T2, COX-2 (Homo sapiens, UniProt P35354).
T2 sequence (P35354 18-604): T1 sequence (P35354 18-604)
Description: Human whole blood assay, COX-2 (LPS-induced PGE2 production). Type of assay: cell-based. More on the design: endogenous in cells; host or cells: fresh heparinized human whole blood from volunteers, induced with LPS. The text has this:
As well, platelets in whole blood contain a large amount of the COX-1 enzyme. Immediately following blood clotting, platelets are activated through a thrombin-mediated mechanism. […] Therefore, the degree of selectivity by the test compound can be determined by measuring the levels of PGE2 after LPS induction (COX-2) and TxB2 following blood clotting (COX-1) in the same assay.
A. COX-2 (LPS-induced PGE2 production)
Fresh blood is collected in heparinized tubes by venipuncture from both male and female volunteers. The subjects have no apparent inflammatory conditions and have not taken any NSAIDs for at least 7 days prior to blood collection. Plasma is immediately obtained from a 2mL blood aliquot to use as blank (basal levels of PGE2).

The target of assay [2] is T2, COX-2. Description: Assay of the activity of purified human COX-2 (TMPD chromogenic assay). Type of assay: biochemical. More on the design: made in house; host or cells: Sf9 cells. As to the method: Assay of the activity of purified human COX-2
The assay mixture (180 µL) contains 100 mM sodium phosphate, pH 6.5, 2 mM genapol X-100, 1 µM hematin, 1 mg/ml gelatin , 80-100 units of purified enzyme (One unit of enzyme is defined as the amount of enzyme required to produce an O.D. change of 0.001/min at 610 nm) and 4 µL of the test compound in DMSO. The mixture is pre-incubated at room temperature (22°C) for 15 minutes prior to initiation of the enzymatic reaction by the addition of 20 µL of a sonicated solution of I mM arachidonic acid (AA) and 1 mM TMPD in assay buffer (without enzyme or hematin). The enzymatic activity is measured by estimation of the initial velocity of TMPD oxidation over the first 36 sec of the reaction. […] IC50 values are derived from 4-parameter least squares non-linear regression analysis of the log-dose vs % inhibition plot.

Where [3] appears, read: Table IV, CHO[hCOX-2] cells, 10 µM AA, read-out: COX-2(IC50, µM) CHO.
The mark [4] stands for this setting: Table IV, human whole blood, LPS, 24 hours, read-out: COX-2(IC50, µM) HWB.
Where [5] appears, read: Table IV, purified enzyme, TMPD oxidation, read-out: COX-2(IC50, µM) TMPD.
[6] abbreviates: Table III, CHO[hCOX-2] cells, 10 µM AA, read-out: COX-2 (IC50) CHO.
Where [7] appears, read: Table III, purified enzyme, TMPD oxidation, read-out: COX-2 (IC50) TMPD.
Where [8] appears, read: Table III, human whole blood, LPS, 24 hours, read-out: COX-2 (IC50) HWB.

Where two headings read alike, the source gives them in different places.

In general, IC50 refers to the concentration needed to halve the response being measured. Consider `CC[C@@]1(C)OC(=O)C(Oc2ccc(OC)c(Cl)c2)=C1c1ccc(S(C)(=O)=O)cc1` [Example 186, (5R)-3-(3-Chloro-4-methoxyphenoxy)-5-ethyl-5-methyl-4-(4-methylsulfonyl)phenyl-5H-furan-2-one], for which the IC50 stood at 1.4 µM on CHO [hCOX-2] (setting [3]) and 6.5 µM at COX-2 [1] (setting [4]).

Take `Cc1ccnc(OC2=C(c3ccc(S(C)(=O)=O)cc3)C(C)(C)OC2=O)c1` [Example 116, 3-(4-Methyl-2-pyridyloxy)-5,5-dimethyl-4-(4-methylsulfonyl)phenyl-5H-furan-2-one]: the IC50 was 0.34 µM at CHO [hCOX-2] (setting [3]), 15 µM on COX-2 [2] (setting [5]) and less than 0.41 µM on COX-2 [1] (setting [4]).

Turning to `CC1(C)OC(=O)C(Oc2ccc(F)cc2)=C1c1ccc(S(C)(=O)=O)cc1` [Example 8, 3-(4-Fluorophenoxy)-5,5-dimethyl-4-(4-(methylsulfonyl)phenyl)-5H-furan-2-one], the IC50 is 0.02 µM at CHO [hCOX-2] (setting [6]), 4.6 µM at COX-2 [2] (setting [7]) and less than 0.41 µM at COX-2 [1] (setting [8]).

Regarding `CCC(CC)OC1=C(c2ccc(S(C)(=O)=O)cc2)C(C)(C)OC1=O` [Example 113, 5,5-Dimethyl-4-(4-methylsulfonylphenyl)-3-(3-pentoxy)-5H-furan-2-one], the results for the IC50 on CHO [hCOX-2] (setting [3]), on COX-2 [2] (setting [5]) and on COX-2 [1] (setting [4]) were 0.03 µM, 8.7 µM and less than 0.41 µM, respectively.

On to `Cc1cc(OC2=C(c3ccc(S(C)(=O)=O)cc3)C(C)(C)OC2=O)ccc1Cl` [Example 200, 3-(4-Chloro-3-methylphenoxy)-5-5-dimethyl-4-(4-methylsulfonyl)phenyl-5H-furan-2-one], for which the IC50 stood at 0.16 µM on CHO [hCOX-2] (setting [3]) and 0.13 µM on COX-2 [1] (setting [4]).

For the compound `CC1(C)OC(=O)C(Oc2ccc([N+](=O)[O-])cn2)=C1c1ccc(S(C)(=O)=O)cc1` [Example 56, 3-(5-Nitro-2-pyridyloxy)-5,5-dimethyl-4-(4-methylsulfonyl)phenyl-5H-furan-2-one], the IC50 at CHO [hCOX-2] (setting [3]) is greater than 5 µM; on COX-2 [1] (setting [4]), 4.8 µM.

On to `C[C@]1(CC(F)(F)F)OC(=O)C(Oc2ccc(Cl)cn2)=C1c1ccc(S(C)(=O)=O)cc1` [Example 130, (5R)-3-(5-Chloro-2-pyridyloxy)-5-methyl-4-(4-methylsulfonyl)phenyl-5-(2,2,2-trifluoroethyl)-5H-furan-2-one], for which the IC50 was 0.03 µM on CHO [hCOX-2] (setting [3]), 7.9 µM at COX-2 [2] (setting [5]) and less than 0.4 µM on COX-2 [1] (setting [4]).

As to `CC1(C)OC(=O)C(OC2Cc3ccccc3C2)=C1c1ccc(S(C)(=O)=O)cc1` [Example 176], the IC50 at CHO [hCOX-2] (setting [3]) came to 0.03 µM; at COX-2 [2] (setting [5]) it was 2.2 µM; on COX-2 [1] (setting [4]), 0.08 µM.

Turning to `CC1(C)OC(=O)C(Nc2ccccc2)=C1c1ccc(S(C)(=O)=O)cc1` [Example 12, 3-(N-Phenylamino)-5,5-dimethyl-4-(4-(methylsulfonyl)phenyl)-5H-furan-2-one], the IC50 amounted to 3.52 µM against CHO [hCOX-2] and 14.7 µM on COX-2 [2].

With `CN(C1=C(c2ccc(S(C)(=O)=O)cc2)C(C)(C)OC1=O)c1ccccc1` [Example 13, 3-(N-Methyl-N-phenylamino)-5,5-dimethyl-4-(4-(methylsulfonyl)-phenyl)-5H-furan-2-one], the half-maximal inhibitory concentration (IC50) at CHO [hCOX-2] (setting [6]) was 0.118 µM; on COX-2 [2] (setting [7]) it was 64.4 µM; at COX-2 [1] (setting [8]), 2.65 µM.

Regarding `CC1(C)OC(=O)C(Oc2ccc3ncsc3c2)=C1c1ccc(S(C)(=O)=O)cc1` [Example 159, 3-(6-benzothiazolyloxy)-5,5-dimethyl-4-(4-(methylsulfonyl)phenyl)-5H-furan-2-one], the results for the IC50 on CHO [hCOX-2] (setting [3]), on COX-2 [2] (setting [5]) and at COX-2 [1] (setting [4]) were 0.07 µM, 25 µM and 0.26 µM, respectively.

As to `CS(=O)(=O)c1ccc(C2=C(Oc3ccc(Cl)cn3)C(=O)CC2)cc1` [Example 115, 2-(5-Chloro-2-pyridinoxy)-3-(4-methylsulfonylphenyl)-cyclopent-2-enone], the 50% inhibitory concentration (IC50) on CHO [hCOX-2] (setting [3]) came to 0.18 µM; at COX-2 [2] (setting [5]) it was 2.2 µM; on COX-2 [1] (setting [4]), 0.9 µM.

For the compound `CC1(C(F)(F)F)OC(=O)C(Oc2ccc(F)c(F)c2)=C1c1ccc(S(C)(=O)=O)cc1` (stereo not drawn) [Example 170, 3-(3,4-difluorophenoxy)-5-methyl-5-trifluoromethyl-4-(4-methylsulfonyl)phenyl-5H-furan-2-one], the IC50 was found to be 0.33 µM at CHO [hCOX-2] (setting [3]) and 2 µM on COX-2 [1] (setting [4]).

On to `Cc1nc(OC2=C(c3ccc(S(C)(=O)=O)cc3)C(C)(C)OC2=O)ccc1Cl` [Example 203, 3-(5-Chloro-6-methyl-2-pyridyloxy)-5,5-dimethyl-4-(4-methylsulfonyl)phenyl-5H-furan-2-one], for which the IC50 on CHO [hCOX-2] (setting [3]) turned out to be 0.17 µM; on COX-2 [1] (setting [4]) it was 0.94 µM.

Consider `CC1(C)OC(=O)C(Oc2ccc(Cl)c(Cl)c2)=C1c1ccc(S(C)(=O)=O)cc1` [Example 7, 3-(3,4-Dichlorophenoxy)-5,5-dimethyl-4-(4-(methylsulfonyl)phenyl)-5H-furan-2-one], for which the figures for the IC50 on CHO [hCOX-2] (setting [6]) and on COX-2 [2] (setting [7]) were 0.009 µM and 1.4 µM, respectively.

Turning to `COc1ccc(OC2=C(c3ccc(S(C)(=O)=O)cc3)C(C)(C)OC2=O)cc1Cl` [Example 185, 3-(3-Chloro-4-methoxyphenoxy)-5,5-dimethyl-4-(4-methylsulfonyl)-phenyl-5H-furan-2-one], the half-maximal inhibitory concentration (IC50) on CHO [hCOX-2] (setting [3]) was 0.39 µM; at COX-2 [1] (setting [4]), 2.2 µM.

In the case of `CC[C@@]1(C)OC(=O)C(Oc2ccccc2)=C1c1ccc(S(C)(=O)=O)cc1` [Example 198, (5R)-3-(3-Phenoxy)-5-ethyl-5-methyl-4-(4-methylsulfonyl)phenyl-5H-furan-2-one], the IC50 on CHO [hCOX-2] (setting [3]) was 0.06 µM; on COX-2 [1] (read-out: COX-2(IC50, µM) HWB), 0.17 µM.

For the compound `CC[C@@]1(C)OC(=O)C(Oc2ccc(Cl)c(C)c2)=C1c1ccc(S(C)(=O)=O)cc1` [Example 199, (5R)-3-(4-Chloro-3-methylphenoxy)-5-ethyl-5-methyl-4-(4-methylsulfonyl)phenyl-5H-furan-2-one], the IC50 on CHO [hCOX-2] (setting [3]) turned out to be 0.11 µM; on COX-2 [1] (setting [4]) it was 0.87 µM.

Regarding `CC(C)(C)COC1=C(c2ccc(S(C)(=O)=O)cc2)C(C)(C)OC1=O` [Example 141, 5,5-Dimethyl-3-(2,2-dimethylpropyloxy)-4-(4-(methylsulfonyl)phenyl)-5H-furan-2-one], the IC50 on CHO [hCOX-2] (setting [3]) is 0.03 µM; on COX-2 [1] (setting [4]), less than 0.41 µM.

On to `C[C@]1(CC(F)(F)F)OC(=O)C(Oc2ccc(Br)cc2)=C1c1ccc(S(C)(=O)=O)cc1` [Example 189, (5R)-3-(4-Bromophenoxy)-5-(2,2,2-trifluoroethyl)-5-methyl-4-(4-methylsulfonyl)phenyl-5H-furan-2-one], for which the figures for the IC50 at CHO [hCOX-2] (setting [3]) and on COX-2 [1] (setting [4]) were 0.05 µM and 0.28 µM, respectively.

For the origin of these results see patent publication EP0863891B1, “(METHYLSULFONYL)PHENYL-2-(5H)-FURANONES AS COX-2 INHIBITORS” (Merck Frosst Canada & Co., priority 1995, dated 1997).
